From US4749703A, “Calcium antagonist piperazine derivatives, and compositions therefor” (Dainippon Pharmaceutical Co., Ltd., priority 1984, dated 1988)

Assays:
[1] = test system: spontaneously hypertensive rats (SHR); assay: Antihypertensive activity in spontaneously hypertensive rats (SHR); format: in vivo, male SHR (Okamoto and Aoki strain) rats; conditions: 30 mg/kg
Protocol: The animals used were male SHR [Okamoto and Aoki strain; cf. Jap. Circul. […] Proc. Soc. […] The other end of the cannula was exposed through the skin on the back of the neck and fixed. After 1 to 4 days, the aortic cannula was connected to a pressure transducer (produced by Nihon Koden Co., Ltd., Japan; Model MP-4T), and conscious blood pressure was measured by direct method. On the day of the experiment, the blood pressure was measured for one hour prior to dosing. The test compound, suspended in 0.5% aqueous tragacanth solution, was administered orally at a volume of 3.0 ml/kg and the blood pressure was measured continuously for 5 hours.
The changes of blood pressure are expressed by the mean pressure calculated from the values of systolic and diastolic pressure.

[2] = test system: vasopressin-induced ST depression; assay: Preventive effect on vasopressin-induced ST depression (experimental model of angina pectoris); format: in vivo, Male Donryu strain rats; parameters: key to Preventive effect on ST depression, 7 hours / Preventive effect on ST depression, 1 hour / Preventive effect on ST depression, 5 hours / Preventive effect on ST depression, 3 hours: +: Significantly different from vehicle control (P < 0.05); -: No significant difference; conditions: for Preventive effect on ST depression, 1 hour: 1 hour following administration; for Preventive effect on ST depression, 7 hours: 7 hours following administration
Protocol: (1) Preventive effect on vasopressin-induced ST depression (effect in experimental model of angina pectoris)
The test was carried out according to the method of Hatano et al. [cf. Pharmacometrics, 19, 311-317 (1980)].
Male Donryu strain rats, weighing 130-180 g, were anesthetized with 60 mg/kg (i.p.) of sodium pentobarbital. Lead II electrocardiogram was recorded. The ST depression produced with 0.2 IU/kg (i.v.) of vasopressin was recorded at intervals of a given period for 5 minutes after the administration of vasopressin. The test compound, suspended in 0.5% aqueous tragacanth solution, was administered orally 1, 3, 5 and 7 hours before the administration of vasopressin. The amplitude of ST depression was measured by means of the computer, and the data were analyzed statistically by two-dimensional analysis between the control group and the treated group to evaluate the effect of the test compound. Each group of 5 rats was used for each dose of the test compound.

[3] = test system: methacholine-induced ST elevation; assay: Preventive effect on methacholine-induced ST elevation (experimental model of variant angina); format: in vivo, Male SD strain rats; conditions: i.v.; for ST elevation, administn. of M (8 μg) after administn. of test compd. (at peak time): ± S.E.
Protocol: (2) Preventive effect on methacholine-induced ST elevation (effect in experimental model of variant angina)
The test was carried out according to the method of Sakai et al. [cf. J. Pharmacol. Methods, 5, 325-336 (1981)].
Male SD strain rats, weighing about 500 g, were anesthetized with 60 mg/kg (i.p.) of sodium pentobarbital. Lead II electrocardiogram was recorded. The ST elevation was produced with 8.0 μg of metacholine given into the coronary […] through the cannula inserted from the right carotid artery. The test compound, dissolved in 5% ethanol-physiological saline solution, was administered intravenously. The amplitude of ST elevation was measured by means of the computer 0.5, 5 and 10 minutes after the administration of the test compound and afterward at intervals of 10-minute. The effect of the test compound was evaluated by comparing the amplitude of ST elevation after administration of the test compound with that before the administration. Each group of 5 rats was used for each dose of the test compound.
The abbreviation M in the table represents metacholine.

[4] = in vivo; conditions: mouse, mortality for 7 days
Description: STD-ddY strain mice were used in groups of 10 animals each.

O=C(CCCN1CCN(c2ccc(F)cc2)CC1)NC1c2ccccc2CSc2ccccc21 (stereo not shown) [Example 1(3), 11-[4-[4-(4-fluorophenyl)-1-piperazinyl]butyrylamino]-6,11-dihydrodibenzo[b,e]thiepin]
Peak time (time of maximum hypotensive effect) ([1]; p.o.): 5 h
maximum hypotensive effect (decrease compared with the initial blood pressure) ([1]; oral): 12-14%
time of maximum hypotensive effect ([1]; oral): 4 to 5 h
Preventive effect on ST depression, 1 hour ([2]; 3 mg/kg p.o.): +
Preventive effect on ST depression, 3 hours ([2]; 3 mg/kg p.o., 3 hours following administration): -
Preventive effect on ST depression, 1 hour ([2]; 10 mg/kg p.o.): +
Preventive effect on ST depression, 5 hours ([2]; 10 mg/kg p.o., 5 hours following administration): +
Preventive effect on ST depression, 7 hours ([2]; 10 mg/kg p.o.): -
Preventive effect on ST depression, 7 hours ([2]; 30 mg/kg p.o.): +
preventive effect on the ST depression (in words) ([2]; p.o., compared with diltiazem hydrochloride): more prolonged preventive effect on the ST depression than diltiazem hydrochloride
peak time (preventive effect on ST elevation) ([3]; 0.1 mg/kg): 0.5 min
ST elevation, administn. of M (8 μg) after administn. of test compd. (at peak time) ([3]; 0.1 mg/kg, * P < 0.05): +0.14 ± 0.02 ΔmV
peak time (preventive effect on ST elevation) ([3]; 0.3 mg/kg): 5 min
ST elevation, administn. of M (8 μg) after administn. of test compd. (at peak time) ([3]; 0.3 mg/kg, * P < 0.05, ** P < 0.01): +0.09 ± 0.02 ΔmV
peak time (preventive effect on ST elevation) ([3]; 1.0 mg/kg): 0.5 min
ST elevation, administn. of M (8 μg) after administn. of test compd. (at peak time) ([3]; 1.0 mg/kg, ** P < 0.01): +0.09 ± 0.01 ΔmV
preventive effect on the ST elevation (in words) ([3]; compared with diltiazem hydrochloride): preventive effect on the ST elevation comparable to that of diltiazem hydrochloride
LD50 at 168 h ([4]; ip, single intraperitoneal administration): > 1000 mg/kg
LD50 at 168 h ([4]; single oral administration): > 4000 mg/kg
